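Cultured in 96-well plates, cells were exposed to test compound for 48 hours across five concentrations. TGI denotes the concentration required for complete inhibition of growth.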
What was measured:
Assay in all cases: growth of human tumour cells (NCI), 48 h
MOLT-4 leukemia = tested on: MOLT-4 leukemia
NCI-H226 lung = tested on: NCI-H226 lung
ACHN renal = tested on: ACHN renal
NCI-H23 lung = tested on: NCI-H23 lung
SF-268 CNS = tested on: SF-268 CNS
COLO 205 colon = tested on: COLO 205 colon
CCRF-CEM leukemia = tested on: CCRF-CEM leukemia
SK-MEL-5 melanoma = tested on: SK-MEL-5 melanoma
DU-145 prostate = tested on: DU-145 prostate
IGROV1 ovarian = tested on: IGROV1 ovarian
RPMI-8226 leukemia = tested on: RPMI-8226 leukemia
A549 NSCLC = tested on: A549 NSCLC
MALME-3M melanoma = tested on: MALME-3M melanoma
SK-OV-3 ovarian = tested on: SK-OV-3 ovarian
786-0 renal = tested on: 786-0 renal
SK-MEL-28 melanoma = tested on: SK-MEL-28 melanoma
MCF7 breast = tested on: MCF7 breast
OVCAR-5 ovarian = tested on: OVCAR-5 ovarian
HCT-116 colon = tested on: HCT-116 colon
OVCAR-3 ovarian = tested on: OVCAR-3 ovarian
OVCAR-8 ovarian = tested on: OVCAR-8 ovarian
UO-31 renal = tested on: UO-31 renal
KM12 colon = tested on: KM12 colon
A498 renal = tested on: A498 renal
HL-60(TB) leukemia = tested on: HL-60(TB) leukemia
CAKI-1 renal = tested on: CAKI-1 renal
HOP-62 NSCLC = tested on: HOP-62 NSCLC
RXF 393 renal = tested on: RXF 393 renal
K-562 leukemia = tested on: K-562 leukemia
SF-295 CNS = tested on: SF-295 CNS
NCI/ADR-RES ovarian = tested on: NCI/ADR-RES ovarian
HCC-2998 colon = tested on: HCC-2998 colon
LOX IMVI melanoma = tested on: LOX IMVI melanoma
NCI-H460 lung = tested on: NCI-H460 lung
SF-539 CNS = tested on: SF-539 CNS
MDA-MB-435 = tested on: MDA-MB-435
HT29 colon = tested on: HT29 colon
U251 CNS = tested on: U251 CNS
SNB-75 CNS = tested on: SNB-75 CNS
TK-10 renal = tested on: TK-10 renal
SW-620 colon = tested on: SW-620 colon
MDA-N = tested on: MDA-N
BT-549 breast = tested on: BT-549 breast
OVCAR-4 ovarian = tested on: OVCAR-4 ovarian
T-47D breast = tested on: T-47D breast
EKVX NSCLC = tested on: EKVX NSCLC
SNB-19 CNS = tested on: SNB-19 CNS
M14 melanoma = tested on: M14 melanoma
PC-3 prostate = tested on: PC-3 prostate
UACC-62 melanoma = tested on: UACC-62 melanoma
SN12C renal = tested on: SN12C renal
MDA-MB-231 breast = tested on: MDA-MB-231 breast
UACC-257 melanoma = tested on: UACC-257 melanoma
HOP-92 NSCLC = tested on: HOP-92 NSCLC
HCT-15 colon = tested on: HCT-15 colon
NCI-H522 lung = tested on: NCI-H522 lung
SK-MEL-2 melanoma = tested on: SK-MEL-2 melanoma
SR leukemia = tested on: SR leukemia
HS 578T breast = tested on: HS 578T breast

O=P(O)(CN1CCN(CP(=O)(O)c2ccccc2)CCN(CP(=O)(O)c2ccccc2)CC1)c1ccccc1
TGI (MOLT-4 leukemia): > 100 µM | TGI (NCI-H226 lung): > 100 µM | TGI (ACHN renal): > 100 µM | TGI (NCI-H23 lung): > 100 µM | TGI (SF-268 CNS): > 100 µM | TGI (COLO 205 colon): > 100 µM | TGI (CCRF-CEM leukemia): > 100 µM | TGI (SK-MEL-5 melanoma): > 100 µM | TGI (DU-145 prostate): > 100 µM | TGI (IGROV1 ovarian): > 100 µM | TGI (RPMI-8226 leukemia): > 100 µM | TGI (A549 NSCLC): > 100 µM | TGI (MALME-3M melanoma): > 100 µM | TGI (SK-OV-3 ovarian): > 100 µM | TGI (786-0 renal): > 100 µM | TGI (SK-MEL-28 melanoma): > 100 µM | TGI (MCF7 breast): > 100 µM | TGI (OVCAR-5 ovarian): > 100 µM | TGI (HCT-116 colon): > 100 µM | TGI (OVCAR-3 ovarian): > 100 µM | TGI (OVCAR-8 ovarian): > 100 µM | TGI (UO-31 renal): > 100 µM | TGI (KM12 colon): > 100 µM | TGI (A498 renal): 88.6 µM | TGI (HL-60(TB) leukemia): > 100 µM | TGI (CAKI-1 renal): > 100 µM | TGI (HOP-62 NSCLC): > 100 µM | TGI (RXF 393 renal): > 100 µM | TGI (K-562 leukemia): > 100 µM | TGI (SF-295 CNS): > 100 µM | TGI (NCI/ADR-RES ovarian): > 100 µM | TGI (HCC-2998 colon): > 100 µM | TGI (LOX IMVI melanoma): > 100 µM | TGI (NCI-H460 lung): > 100 µM | TGI (SF-539 CNS): > 100 µM | TGI (MDA-MB-435): > 100 µM | TGI (HT29 colon): > 100 µM | TGI (U251 CNS): > 100 µM | TGI (SNB-75 CNS): > 100 µM | TGI (TK-10 renal): > 100 µM | TGI (SW-620 colon): > 100 µM | TGI (MDA-N): > 100 µM | TGI (BT-549 breast): > 100 µM | TGI (OVCAR-4 ovarian): > 100 µM | TGI (T-47D breast): > 100 µM | TGI (EKVX NSCLC): > 100 µM | TGI (SNB-19 CNS): > 100 µM

CC[C@@]1(CCC(=O)NCCc2c[nH]c3ccccc23)CCC(=O)N2CCc3c([nH]c4ccccc34)[C@H]21
TGI (MOLT-4 leukemia): 34.4 µM | TGI (NCI-H226 lung): 77.8 µM | TGI (ACHN renal): > 100 µM | TGI (NCI-H23 lung): > 100 µM | TGI (SF-268 CNS): 30 µM | TGI (COLO 205 colon): > 100 µM | TGI (M14 melanoma): > 100 µM | TGI (CCRF-CEM leukemia): > 100 µM | TGI (PC-3 prostate): > 100 µM | TGI (SK-MEL-5 melanoma): > 100 µM | TGI (DU-145 prostate): > 100 µM | TGI (IGROV1 ovarian): 30 µM | TGI (RPMI-8226 leukemia): 9.59 µM | TGI (A549 NSCLC): > 100 µM | TGI (MALME-3M melanoma): 25.4 µM | TGI (UACC-62 melanoma): 65.3 µM | TGI (SK-OV-3 ovarian): > 100 µM | TGI (786-0 renal): > 100 µM | TGI (SK-MEL-28 melanoma): > 100 µM | TGI (MCF7 breast): > 100 µM | TGI (OVCAR-5 ovarian): > 100 µM | TGI (HCT-116 colon): > 100 µM | TGI (OVCAR-3 ovarian): > 100 µM | TGI (SN12C renal): > 100 µM | TGI (UO-31 renal): > 100 µM | TGI (KM12 colon): 19.4 µM | TGI (A498 renal): > 100 µM | TGI (MDA-MB-231 breast): > 100 µM | TGI (UACC-257 melanoma): > 100 µM | TGI (CAKI-1 renal): > 100 µM | TGI (HOP-62 NSCLC): > 100 µM | TGI (HOP-92 NSCLC): > 100 µM | TGI (RXF 393 renal): 33.3 µM | TGI (HCT-15 colon): > 100 µM | TGI (NCI-H522 lung): 18.8 µM | TGI (K-562 leukemia): > 100 µM | TGI (SF-295 CNS): 60.6 µM | TGI (NCI/ADR-RES ovarian): 33.4 µM | TGI (HCC-2998 colon): 46.7 µM | TGI (LOX IMVI melanoma): 96.2 µM | TGI (NCI-H460 lung): > 100 µM | TGI (SK-MEL-2 melanoma): 86.4 µM | TGI (SF-539 CNS): 61.3 µM | TGI (MDA-MB-435): 47.1 µM | TGI (U251 CNS): > 100 µM | TGI (TK-10 renal): > 100 µM | TGI (SW-620 colon): > 100 µM | TGI (MDA-N): > 100 µM | TGI (BT-549 breast): 19.2 µM | TGI (OVCAR-4 ovarian): > 100 µM | TGI (T-47D breast): > 100 µM | TGI (EKVX NSCLC): > 100 µM | TGI (SNB-19 CNS): > 100 µM

C=CC1(C)OC2(CCN(C(=O)OCC)CC2)OC1C (stereo unspecified)
TGI (MOLT-4 leukemia): > 100 µM | TGI (NCI-H226 lung): > 100 µM | TGI (ACHN renal): > 100 µM | TGI (NCI-H23 lung): > 100 µM | TGI (SF-268 CNS): > 100 µM | TGI (COLO 205 colon): > 100 µM | TGI (M14 melanoma): > 100 µM | TGI (CCRF-CEM leukemia): > 100 µM | TGI (PC-3 prostate): > 100 µM | TGI (SK-MEL-5 melanoma): > 100 µM | TGI (DU-145 prostate): > 100 µM | TGI (IGROV1 ovarian): > 100 µM | TGI (RPMI-8226 leukemia): > 100 µM | TGI (A549 NSCLC): > 100 µM | TGI (MALME-3M melanoma): > 100 µM | TGI (UACC-62 melanoma): > 100 µM | TGI (SK-OV-3 ovarian): > 100 µM | TGI (786-0 renal): > 100 µM | TGI (SK-MEL-28 melanoma): > 100 µM | TGI (MCF7 breast): > 100 µM | TGI (OVCAR-5 ovarian): > 100 µM | TGI (SR leukemia): > 100 µM | TGI (OVCAR-3 ovarian): > 100 µM | TGI (OVCAR-8 ovarian): > 100 µM | TGI (UO-31 renal): > 100 µM | TGI (KM12 colon): > 100 µM | TGI (A498 renal): > 100 µM | TGI (MDA-MB-231 breast): > 100 µM | TGI (UACC-257 melanoma): > 100 µM | TGI (HL-60(TB) leukemia): > 100 µM | TGI (CAKI-1 renal): > 100 µM | TGI (HOP-62 NSCLC): > 100 µM | TGI (HOP-92 NSCLC): > 100 µM | TGI (RXF 393 renal): > 100 µM | TGI (HCT-15 colon): > 100 µM | TGI (NCI-H522 lung): > 100 µM | TGI (K-562 leukemia): > 100 µM | TGI (SF-295 CNS): > 100 µM | TGI (NCI/ADR-RES ovarian): > 100 µM | TGI (HCC-2998 colon): > 100 µM | TGI (LOX IMVI melanoma): > 100 µM | TGI (NCI-H460 lung): > 100 µM | TGI (SK-MEL-2 melanoma): > 100 µM | TGI (SF-539 CNS): > 100 µM | TGI (MDA-MB-435): > 100 µM | TGI (HT29 colon): > 100 µM | TGI (U251 CNS): > 100 µM | TGI (SNB-75 CNS): > 100 µM | TGI (TK-10 renal): > 100 µM | TGI (SW-620 colon): > 100 µM | TGI (MDA-N): > 100 µM | TGI (OVCAR-4 ovarian): > 100 µM | TGI (T-47D breast): > 100 µM | TGI (EKVX NSCLC): > 100 µM | TGI (HS 578T breast): > 100 µM | TGI (SNB-19 CNS): > 100 µM

Reference: PubChem BioAssay (NCI)
